Experimental data: patent US20030161902A1, “Increased lifespan formulation” (priority 2001, published 2003)

Tests used:
[1] = test system: rodent; conditions: rodent trials, dietary supplementation; cited from earlier work
[2] = Antioxidant activity of mouse food and pine bark extract (Table 2); type: biochemical
Procedure: The experimental mice were fed ad libitum on Archer's mouse food pellets dosed with measured doses of pine bark extract manufactured as above. Preferably, the present composition is administered in a form selected from the group including: a tablet; a capsule; a suppository; an injection; a suspension; a drink; a tonic; a syrup; a powder; an ingredient in solid foods; an ingredient in liquid foods; and combinations thereof, all of which are considered equivalent. Most preferably, the composition is administered orally as a powder mixed with food. The antioxidant composition of the food was as follows (Table 2 below): […]

[3] = test system: mice; conditions: cited from earlier work

In the case of vitamin E, the “effect on mean survivorship and maximum life span” value [1] is listed as “Increases in mean survivorship, but not maximum life span”.
In the case of `O=C1O[C@H]([C@@H](O)CO)C(O)=C1O` [Vitamin C], the EC50 ([2]; antioxidant composition of sample) is given as 3.79 µg/mL, the “RELATIVE ANTIOXIDANT ACTIVITY” value ([2]; relative to mouse pellet = 1) is given as 1.76 and the “effect on mean survivorship and maximum life span” value [1] is given as “Increases in mean survivorship, but not maximum life span”.
For `OCCS` [2-mercaptoethanol], the “effect on maximum lifespan” value ([3]; mice fed supplement) is listed as “increase in maximum lifespan” and the toxicity ([3]; mouse, in vivo) is listed as “toxic”.
